Experiments:
[1] = system: hand-foot syndrome caused by anti-tumor agents; assay: Treatment of established hand-foot syndrome caused by anti-tumor agents in rats (Table 4); type: in vivo
Experimental: After the rats (about 200 g) were fed and adapted for one week, the rats were divided into groups of 10 rats for gavage administration experiment. The anti-tumor agent was dissolved in a mixed solution of Cremophor EL:ethanol=1:1, and diluted with PBS to the required concentration (diluted about 3 times with PBS solution) before gavage. […] Specific experimental procedures followed those outlined in the prevention experiment. […] Table 4 lists the animal experiments using various anti-tumor agents and NO-NSAID ointment, as well as the corresponding experimental results (where the value in the control rate column=the incidence rate of hand-foot syndrome in the blank group−the incidence rate of hand-foot syndrome in the treatment group).

[2] = system: human oral keratinocytes (HOK); assay: CCK-8 cell viability: alleviation of proliferative toxicity of anti-tumor agents on HOK (Table 8-2); type: cell-based; conditions: NO-NSAID 100 μM
Experimental: (§1) Experiments were conducted using various epithelial cells: Examples 47-51 used human immortalized keratinocytes (HaCaT) with corresponding results in Table 8-1; Examples 52-56 used human oral keratinocytes (HOK) with results in Table 8-2; Examples 57-61 used gastric epithelial cells (GES-1) with results in Table 8-3; Examples 62-66 used human intestinal epithelial cells (FHs 74 Int) with results in Table 8-4.
(§2) The cultured cells were digested the suspended, counted, and seed into a 96-well plate with 5,000-10,000 cells per well. The wells are divided into the following groups: blank control group, anti-tumor agent group, anti-tumor agent+NO-NSAID group, anti-tumor agent solvent group, NO-NSAID solvent control group. Wherein each well of each group contained a basic medium, and the final liquid volume contained in each well was about 100 μL. The grouping situation was as follows: • 1) Blank control group: no solution was added except normally replacing the medium; • 2) Anti-tumor agent group: added the anti-tumor agent solution (the final concentration was shown in Table 8-1 to Table 8-4, the solvent of the anti-tumor agent solution was DMSO); • 3) Anti-tumor agent+NO-NSAID group: added the anti-tumor agent solution and the NO-NSAID solution (the final concentrations of anti-tumor agent and NO-NSAID were shown in Table 8-1 to Table 8-4, and according to the solubility of NO-NSAID, the solvent of NO-NSAID solution was selected as ethanol or sterile water, and minor volume differences in each group were adjusted by added the corresponding solvent); • 4) Anti-tumor agent solvent group: an equal volume of DMSO as contained in the corresponding anti-tumor agent solution in Group 2) was added; • 5) NO-NSAID control group: the same volume and type of solvent (for example, ethanol or sterile water) corresponding to the NO-NSAID contained in group 3) was added.
(§3) The anti-tumor agent solvent group was not involved in data processing and was only used as a reference for evaluating experimental system error. The NO-NSAID solvent control group was used for data correction to eliminate the influence of the solvent on the results.
(§4) After culturing for 24-48 hours, the Cell Counting Kit-8 (CCK-8) detection kit (C0037, Shanghai Beyotime Biotechnology Co., Ltd., Beyotime Biotechnology) was used to determine the cell viability. This allows for the calculation of the proliferative toxicity of anti-tumor agent on cell and the mitigating effect of NO-NSAID on proliferative toxicity. The results were statistically analyzed and plotted using GraphPad Prism 6.0 software and t test.

[3] = system: gastric epithelial cells (GES-1); assay: CCK-8 cell viability: alleviation of proliferative toxicity of anti-tumor agents on GES-1 (Table 8-3); type: cell-based, human; conditions: NO-NSAID 100 μM
Experimental: as §1, §2, §3, §4

[4] = system: hand-foot syndrome caused by macromolecular anti-tumor agents; assay: Prevention of hand-foot syndrome caused by macromolecular protein inhibitors in rats (Table 3); type: in vivo
[5] = system: chemotherapy-induced hand-foot syndrome; assay: Prevention of chemotherapy-induced hand-foot syndrome in rat models (Table 5); type: in vivo, SD rats
Experimental: Rat animal model was constructed. After several days, the rats develop hand-foot syndrome in their paws. After one week of acclimatization (about 200 g), the SD rats are divided into groups of 10 rats each, followed by gavage administration experiment. The chemotherapy drugs were dissolved, and each rat was given a gavage dose of 1 mL/100 g. After gavage, the rats were fixed with a fixed cylinder. NO-NSAID ointment was applied to the paws of the rats in the medication group, and blank ointment was applied to the paws of the rats in the blank group (as blank control). […] Table 5 lists the animal experimental combinations of chemotherapy drugs and NO-NSAID ointment, as well as the corresponding experimental results (where the value in the control rate column=the incidence rate of hand-foot syndrome in the blank group−the incidence rate of hand-foot syndrome in the treatment group).

[6] = system: human intestinal epithelial cells (FHs 74 Int); assay: CCK-8 cell viability: alleviation of proliferative toxicity of anti-tumor agents on FHs 74 Int (Table 8-4); type: cell-based; conditions: NO-NSAID 100 μM
Experimental: as §1, §2, §3, §4

[7] = system: human immortalized keratinocytes (HaCaT); assay: CCK-8 cell viability: alleviation of proliferative toxicity of anti-tumor agents on HaCaT (Table 8-1); type: cell-based; conditions: NO-NSAID 100 μM, percentage increase in viable cells vs anti-tumor agent alone
Experimental: as §1, §2, §3, §4

## COc1ccc2cc(C(C)C(=O)OCCCCO[N+](=O)[O-])ccc2c1 (stereo not drawn) [Compound A5]
[1]; Apatinib 105 mg/kg once every two days, ointment 2.50% wt, Days 6
  Response rate: 28.57%
[1]; Cabozantinib 50 mg/kg once every two days, ointment 1% wt, Days 11
  Response rate: 33.33%
[1]; Encorafenib 80 mg/kg once every two days, ointment 2.50% wt, Days 7
  Response rate: 40.00%
[1]; Erdafitinib 45 mg/kg once every two days, ointment 2.50% wt, Days 13
  Response rate: 40.00%
[1]; Fruquintinib 40 mg/kg once every two days, ointment 2.50% wt, Days 8
  Response rate: 28.57%
[1]; Lenvatinib 65 mg/kg once a day, ointment 2.50% wt, Days 12
  Response rate: 42.86%
[1]; Olmutinib 100 mg/kg once every two days, ointment 2.50% wt, Days 10
  Response rate: 50.00%
[1]; Regorafenib 90 mg/kg once every two days, ointment 5% wt, Days 6
  Response rate: 57.14%
[1]; Sorafenib 80 mg/kg once every two days, ointment 2.50% wt, Days 5
  Response rate: 50.00%
[1]; Sunitinib 120 mg/kg once every two days, ointment 2.50% wt, Days 7
  Response rate: 33.33%
[2]; Afatinib (10 μM)
  Response rate % (average): 36%
[2]; Cabozantinib (5 μM)
  Response rate % (average): 32%
[2]; Dabrafenib (10 μM)
  Response rate % (average): 8%
[2]; Everolimus (5 μM)
  Response rate % (average): 10%
[2]; Infigratinib (15 μM)
  Response rate % (average): 17%
[2]; Lapatinib (5 μM)
  Response rate % (average): 22%
[2]; Lenvatinib (10 μM)
  Response rate % (average): 25%
[2]; Olmutinib (10 μM)
  Response rate % (average): 38%
[2]; Regorafenib (5 μM)
  Response rate % (average): −2%
[2]; Selumetinib (5 μM)
  Response rate % (average): 8%
[2]; Sorafenib (5 μM)
  Response rate % (average): 28%
[2]; Sunitinib (5 μM)
  Response rate % (average): 29%
[3]; Afatinib (10 μM)
  Response rate % (average): 18%
[3]; Cabozantinib (5 μM)
  Response rate % (average): 37%
[3]; Dabrafenib (10 μM)
  Response rate % (average): 12%
[3]; Everolimus (5 μM)
  Response rate % (average): 33%
[3]; Infigratinib (15 μM)
  Response rate % (average): 36%
[3]; Lapatinib (5 μM)
  Response rate % (average): 40%
[3]; Lenvatinib (10 μM)
  Response rate % (average): 29%
[3]; Olmutinib (10 μM)
  Response rate % (average): 35%
[3]; Regorafenib (5 μM)
  Response rate % (average): 14%
[3]; Selumetinib (5 μM)
  Response rate % (average): 12%
[3]; Sorafenib (5 μM)
  Response rate % (average): 22%
[3]; Sunitinib (5 μM)
  Response rate % (average): 21%
[4]; Bevacizumab, 5-FU combination, tail vein injection once a week, ointment 2.50% wt, Days 18
  Control rate: 50.00%
[4]; Bevacizumab, 5-FU combination, tail vein injection once a week, ointment 5% wt, Days 18
  Control rate: 66.67%
[4]; Ramucirumab combined with paclitaxel, intraperitoneal injection once a week, ointment 2.50% wt, Days 23
  Control rate: 33.33%
[4]; Ramucirumab combined with paclitaxel, intraperitoneal injection once a week, ointment 5% wt, Days 23
  Control rate: 50.00%
[5]; Acelarin 130 mg/kg twice a week, ointment 1% wt, Days 30
  Control rate: 28.57%
[5]; Acelarin 130 mg/kg twice a week, ointment 2.50% wt, Days 30
  Control rate: 57.14%
[5]; Capecitabine 4000 mg/kg once a day, ointment 1% wt, Days 40
  Control rate: 12.50%
[5]; Capecitabine 4000 mg/kg once a day, ointment 2.50% wt, Days 40
  Control rate: 22.22%
[5]; Capecitabine 4000 mg/kg once a day, ointment 5% wt, Days 40
  Control rate: 50.00%
[5]; Cytarabine 120 mg/kg twice a day, ointment 1% wt, Days 30
  Control rate: 14.29%
[5]; Cytarabine 120 mg/kg twice a day, ointment 2.50% wt, Days 30
  Control rate: 28.57%
[5]; Cytarabine 120 mg/kg twice a day, ointment 5% wt, Days 30
  Control rate: 57.14%
[5]; Doxorubicin 7 mg/kg once every three days, ointment 1% wt, Days 30
  Control rate: 37.50%
[5]; Doxorubicin 7 mg/kg once every three days, ointment 2.50% wt, Days 30
  Control rate: 50.00%
[6]; Afatinib (10 μM)
  Response rate % (average): 34%
[6]; Cabozantinib (5 μM)
  Response rate % (average): 36%
[6]; Dabrafenib (10 μM)
  Response rate % (average): −3%
[6]; Everolimus (5 μM)
  Response rate % (average): 28%
[6]; Infigratinib (15 μM)
  Response rate % (average): 16%
[6]; Lapatinib (5 μM)
  Response rate % (average): 43%
[6]; Lenvatinib (10 μM)
  Response rate % (average): 32%
[6]; Olmutinib (10 μM)
  Response rate % (average): 31%
[6]; Regorafenib (5 μM)
  Response rate % (average): 17%
[6]; Selumetinib (5 μM)
  Response rate % (average): 23%
[6]; Sorafenib (5 μM)
  Response rate % (average): 24%
[6]; Sunitinib (5 μM)
  Response rate % (average): 38%
[7]; Afatinib (10 μM)
  Response rate % (average): 32%
[7]; Cabozantinib (5 μM)
  Response rate % (average): 44%
[7]; Dabrafenib (10 μM)
  Response rate % (average): 7%
[7]; Everolimus (5 μM)
  Response rate % (average): 9%
[7]; Infigratinib (15 μM)
  Response rate % (average): 12%
[7]; Lapatinib (5 μM)
  Response rate % (average): 41%
[7]; Lenvatinib (10 μM)
  Response rate % (average): 9%
[7]; Olmutinib (10 μM)
  Response rate % (average): 40%
[7]; Regorafenib (5 μM)
  Response rate % (average): 22%
[7]; Selumetinib (5 μM)
  Response rate % (average): 13%
[7]; Sorafenib (5 μM)
  Response rate % (average): 31%
[7]; Sunitinib (5 μM)
  Response rate % (average): 33%

Source: patent US20250170090A1, “METHOD FOR PREVENTING OR TREATING DISEASE OR DISORDER ASSOCIATED WITH ANTINEOPLASTIC AGENT” (ONQUALITY PHARMACEUTICALS CHINA LTD., priority 2022, published 2025)
